According to US11198711B2 (priority 2013, dated 2021):

Key:
Spodoptera sp. = conditions: native PI1a, literature value; cited from earlier work
[1] = system: Mamestra brassicae larvae; assay: Injection bioassay with Mamestra brassicae larvae; type: in vivo; conditions: injection at up to 40 μg/insect
Method: 3rd-5th instar Mamestra brassicae larvae (approximately 30-55 mg in weight) were used for injection bioassays. Larvae were injected with varying doses of Hv1a, pro-Hv1a, pro-Hv1a/GNA, PI1a, Ao1bProPI1a, PI1a/GNA, Ao1bPro-PI1a/GNA, or Hv1aPro-PI1a/GNA (n=20 per dose) in 5 μl of PBS (phosphate buffered saline; 0.15 M NaCl, 0.015 M sodium-phosphate buffer, pH 7.2). Larvae for controls were injected with 5 μl 1×PBS. Paralysis and mortality was recorded 12-96 h after injection.

[2] = system: Mamestra brassicae larvae; assay: Droplet-feeding (oral) assay with Mamestra brassicae larvae; type: in vivo
Method: Droplet-feeding assays were carried out to assess the oral activity of Hv1a/GNA, pro-Hv1a/GNA, PI1a, Ao1bProPI1a, PI1a/GNA, Ao1bPro-PI1a/GNA, or Hv1aPro-PI1a/GNA towards third to fifth instar larvae of M. brassicae. Larvae were starved for approximately 24 h before feeding in order to encourage droplet consumption. Larvae were fed with a 2 μl droplet containing 20 μg of the above fusion proteins, 30 μg of toxins or 30 μg of GNA, in 1×PBS solution containing 10% sucrose (w/w). Control larvae were fed on PBS/sucrose droplets containing no added protein. Treated larvae were placed on standard artificial diet after consumption of the droplet.

[3] = system: vertebrate calcium channels; conditions: cited from earlier work
[4] = system: invertebrate calcium channels; conditions: cited from earlier work

δ-amaurobitoxin-PI1a [Pl1a (literature)]
LD50 (Spodoptera sp.): 9.5 µg/g

snowdrop lectin (GNA)
mortality [1]: do not result in mortality | reductions in survival ([2]; 30 μg control treatments, 3rd stadium): 0-20% | mortality after 5 days ([2]; single 2 μl droplet containing 20 μg, third instar): 20%

ω-ACTX-Hv1a [Hv1a (literature)]
block of vertebrate calcium channels [3]: not vertebrate | block of invertebrate calcium channels [4]: block invertebrate
